Experimental findings from ChEMBL document CHEMBL5576071, “Structure optimization of Cmpd-15 as negative allosteric modulators for the β2-adrenergic receptor” (Bioorg Med Chem, 2024) are described below.

Series [1] addresses Beta-2 adrenergic receptor (Homo sapiens) (UniProt P07550). The series can be described thus: Negative allosteric modulation of beta-2 adrenergic receptor (unknown origin) transfected in HEK293 cells assessed as decrease in cAMP accumulation at 50 uM preincubated for 20 mins followed by ISO treatment for 5 mins for by Glo sensor assay relative to 4-((2S)-3-(((S)-3-(3-bromophenyl)-1-(methylamino)-1-oxopropan-2-yl)amino)-2-(2-cyclohexyl-2-phenylacetamido)-3-oxopropyl)benzamide. The format is functional, cell-based. To be noted: filed as negative allosteric modulator, time 25.0 min. In general terms: cAMP levels reflect the balance of adenylyl cyclase and phosphodiesterase activity.

For series [2] the target is unchanged. The experiment in a line: Potency index, ratio of 4-((2S)-3-(((S)-3-(3-bromophenyl)-1-(methylamino)-1-oxopropan-2-yl)amino)-2-(2-cyclohexyl-2-phenylacetamido)-3-oxopropyl)benzamide Imax to test compound Imax for negative allosteric modulation of beta-2 adrenergic receptor (unknown origin) transfected in HEK293 cells assessed as decrease in cAMP accumulation at 50 uM preincubated for 20 mins followed by ISO treatment for 5 mins for by Glo sensor assay. The conditions noted are these: filed as negative allosteric modulator, time 25.0 min. The format is functional, cell-based.

A short description of series [3]: Metabolic stability in mouse liver microsomes assessed as half life at 1 uM preincubated for 5 mins followed by NADPH addition measured for 5 to 60 mins by LC-MS/MS analysis. The series is classed as ADME, Microsome. The conditions noted are these: time 10-65 min. (Liver microsomes are vesicles of endoplasmic reticulum, rich in cytochrome P450 enzymes.)
The nature of series [4]: Metabolic stability in human liver microsomes assessed as half life at 1 uM preincubated for 5 mins followed by NADPH addition measured for 5 to 60 mins by LC-MS/MS analysis. The series is classed as ADME, Microsome. To be noted: time 10-65 min.
Series [5] is described as follows: Metabolic stability in mouse liver microsomes assessed as hepatic extraction ratio at 1 uM preincubated for 5 mins followed by NADPH addition measured for 5 to 60 mins by LC-MS/MS analysis. The conditions noted are these: time 10-65 min, read-out: ERH. The format is ADME, Microsome.
The nature of series [6]: Metabolic stability in human liver microsomes assessed as hepatic extraction ratio at 1 uM preincubated for 5 mins followed by NADPH addition measured for 5 to 60 mins by LC-MS/MS analysis. The format is ADME, Microsome. The conditions noted are these: time 10-65 min, read-out: ERH.

Chain of Beta-2 adrenergic receptor (Homo sapiens) (P07550 whole entry, looked up): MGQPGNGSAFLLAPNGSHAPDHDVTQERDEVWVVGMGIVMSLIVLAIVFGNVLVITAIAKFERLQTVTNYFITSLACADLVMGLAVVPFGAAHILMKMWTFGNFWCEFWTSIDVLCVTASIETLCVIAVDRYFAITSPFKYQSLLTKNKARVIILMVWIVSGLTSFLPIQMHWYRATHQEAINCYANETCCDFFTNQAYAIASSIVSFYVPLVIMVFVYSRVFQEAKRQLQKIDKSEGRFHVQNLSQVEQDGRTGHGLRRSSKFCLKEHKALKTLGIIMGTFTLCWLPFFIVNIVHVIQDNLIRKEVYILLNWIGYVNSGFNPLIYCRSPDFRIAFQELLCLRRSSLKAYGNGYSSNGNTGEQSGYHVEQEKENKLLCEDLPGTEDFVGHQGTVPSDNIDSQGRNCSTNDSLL

As for `CNC(=O)[C@H](Cc1cccc(Br)c1)NC(=O)c1cc(-c2ccc(Br)cc2)nn1Cc1cccc(Br)c1`, the Imax in series [1] was found to be 109%. Besides, in series [2], the Ratio was 1.09.

Regarding `CNC(=O)[C@H](Cc1cccc(Br)c1)NC(=O)c1cc(-c2ccccc2)nn1Cc1cccc(F)c1`, the Imax in series [1] stood at 133%. For the same compound, the Ratio in series [2] worked out at 1.33.

On to `CNC(=O)[C@H](Cc1cccc(Br)c1)NC(=O)c1cc(-c2ccccc2)nn1Cc1ccccc1Cl`, for which the Imax in series [1] amounted to 114%. For the same compound, the Ratio in series [2] was 1.14.

For the compound `CNC(=O)[C@H](Cc1cccc(Br)c1)NC(=O)c1cc(-c2ccccc2Cl)nn1Cc1cccc(Br)c1`, the Imax in series [1] was determined as 118%. Moreover, in series [2], the Ratio is 1.18.

On to `CNC(=O)[C@H](Cc1cccc(Br)c1)NC(=O)c1cc(-c2cccc(Cl)c2)nn1Cc1cccc(Br)c1`, for which, in series [1], the Imax worked out at 127%. In addition, the Ratio in series [2] amounted to 1.27.

Turning to `CNC(=O)[C@H](Cc1cccc(Br)c1)NC(=O)c1cc(-c2ccccc2)nn1Cc1cccc(I)c1`, in series [1], the Imax turned out to be 125%. In series [2], the Ratio worked out at 1.25.

For `CNC(=O)[C@H](Cc1cccc(Br)c1)NC(=O)[C@H](Cc1ccc(C(N)=O)cc1)NC(=O)C(c1ccccc1)C1CCCCC1` (stereo not given in full), the half-life at 1 µM in series [3] turned out to be 2.19 min; in series [4], 1.53 min. In addition, the hepatic extraction ratio at 1 µM is 0.986 in series [5] and 0.993 in series [6].

In the case of `CNC(=O)[C@H](Cc1cccc(Br)c1)NC(=O)c1cc(-c2ccccc2[N+](=O)[O-])nn1Cc1cccc(Br)c1`, the Imax in series [1] was 120%. Besides, the Ratio in series [2] was 1.2.

Take `CNC(=O)[C@H](Cc1cccc(Br)c1)NC(=O)c1cc(-c2ccccc2Br)nn1Cc1cccc(Br)c1`: the Imax in series [1] was 91%. Further, in series [2], the Ratio came to 0.91.

For the compound `CNC(=O)[C@H](Cc1cccc(Br)c1)NC(=O)c1cc(-c2ccccc2)nn1Cc1ccc(Cl)cc1`, the Imax in series [1] amounted to 114%. In addition, in series [2], the Ratio is 1.14.

Take `CNC(=O)[C@H](Cc1cccc(Br)c1)NC(=O)c1cc(-c2cccc(Br)c2)nn1Cc1cccc(Br)c1`: the Imax in series [1] is 100%. Also, the Ratio in series [2] was found to be 1.

`CNC(=O)[C@H](Cc1cccc(Br)c1)NC(=O)c1cc(-c2ccccc2)nn1Cc1ccccc1F`: the Imax in series [1] is 143%. In series [2], the Ratio came out at 1.43. Also, the half-life at 1 µM in series [3] came to 58.7 min; in series [4], 41.5 min. In addition, the hepatic extraction ratio at 1 µM was 0.721 in series [5] and 0.835 in series [6].

Regarding `CNC(=O)[C@H](Cc1cccc(Br)c1)NC(=O)c1cc(-c2ccccc2)nn1Cc1ccccc1C#N`, in series [1], the Imax amounted to 67%. In addition, in series [2], the Ratio stood at 0.67.

Turning to `CNC(=O)[C@H](Cc1cccc(Br)c1)NC(=O)c1cc(-c2ccccc2)nn1Cc1ccc(F)cc1`, the Imax in series [1] stood at 114%. The Ratio in series [2] was 1.14.

Regarding `CNC(=O)[C@H](Cc1cccc(Br)c1)NC(=O)c1cc(-c2ccccc2)nn1Cc1ccc(C#N)cc1`, in series [1], the Imax stood at 100%. The Ratio in series [2] was found to be 1.

`CNC(=O)[C@H](Cc1cccc(Br)c1)NC(=O)c1cc(-c2ccc(F)cc2)nn1Cc1cccc(Br)c1`: the Imax in series [1] turned out to be 130%. The Ratio in series [2] stood at 1.3.

With `CNC(=O)[C@H](Cc1cccc(Br)c1)NC(=O)c1cc(-c2ccccc2)nn1Cc1cccc(Cl)c1`, the Imax in series [1] turned out to be 114%. In addition, in series [2], the Ratio was 1.14.

One may read the half-life as how long it takes for the measured level to halve.
